# Experimental data from US9469642B2, “Purinone compounds as kinase inhibitors” (Pharmacyclics LLC, priority 2012, dated 2016).
# Key:
# Format in all cases: biochemical
# [1] = biological target: T1, BTK (Homo sapiens, UniProt Q06187); test: Btk in vitro inhibitory activity (kinase assay by one of Methods A, B or C)
# T1 construct: purified from insect cells as a full-length construct containing a N-terminal 6×-His tag; His6 (N); host or cells: insect cells (baculovirus Sf21)
# Description: (§1) Btk kinase activity is determined using a time-resolved fluorescence resonance energy transfer (TR-FRET) methodology. Measurements are performed in a reaction volume of 50 μL using 96-well assay plates. Kinase enzyme, inhibitor, ATP (at the Km for the kinase), and 1 peptide substrate (Biotin-AVLESEEELYSSARQ-NH2) are incubated in a reaction buffer composed of 20 mM Tris, 50 mM NaCl, MgCl2 (5-25 mM depending on the kinase), MnCl2 (0-10 mM), 1 mM DTT, 0.1 mM EDTA, 0.01% bovine serum albumin, 0.005% Tween-20, and 10% DMSO at pH 7.4 for one hour. The reaction is quenched by the addition of 1.2 equivalents of EDTA (relative to divalent cation) in 25 μL of 1× Lance buffer (Perkin-Elmer). Streptavidin-APC (Perkin-Elmer) and Eu-labeled p-Tyr100 antibody (Perkin-Elmer) in 1× Lance buffer are added in a 25 μL volume to give final concentrations of 100 nM and 2.5 nM, respectively, and the mixture is allowed to incubate for one hour. The TR-FRET signal is measured on a multimode plate reader with an excitation wavelength (λEx) of 330 nm and detection wavelengths (λEm) of 615 and 665 nm. Activity is determined by the ratio of the fluorescence at 665 nm to that at 615 nm. For each compound, enzyme activity is measured at various concentrations of compound. Negative control reactions are performed in the absence of inhibitor in replicates of six, and two no-enzyme controls are used to determine baseline fluorescence levels. Inhibition constants, Ki(app), were obtained using the program BatchKi (Kuzmic et al. (2000), Anal. Biochem. 286:45-50). IC50s are obtained according to the equation: IC50=[…]+[E]total/2;
# (§2) For all kinases, [ATP]=Km^ATP, [Btk]total=0.5 nM and [Lck]total=6 nM.
# (§3) Kinase activity is measured in vitro using electrophoretic mobility shift assay. The kinase reactions are assembled in a total volume of 25 μL in 384 well plates. The reactions comprise: BTK enzyme (1 nM, N-terminal His6-tagged, recombinant, full-length, human BTK purified from baculovirus Sf21 insect cell system), inhibitor, ATP (16 μM, the apparent Km for the kinase), fluorescently labeled peptide substrate (1 μM, FAM-GEEPLYWSFPAKKK-NH2) in a reaction buffer composed of 100 mM HEPES, pH7.5, 5 mM MgCl2 1 mM DTT, 0.1% bovine serum albumin, 0.01% Triton X-100, and 1% DMSO. The reaction is incubated for one hour and is quenched by the addition of 45 μL of termination buffer (100 mM HEPES, pH7.5, 0.01% Triton X-100, 30 mM EDTA). The terminated reactions are analyzed using 12 channel LabChip® 3000 microfluidic detection instrument (Caliper Life Sciences). The enzymatic phosphorylation of the peptide results in a change in net charge, enabling electrophoretic separation of product from substrate peptide. As substrate and product peptides are separated, two peaks of fluorescence are observed. Change in the relative fluorescence intensity of the substrate and product peaks is the parameter measured, reflecting enzyme activity. In the presence of an inhibitor, the ratio between product and substrate is altered:the signal of the product decreases, while the signal of the substrate increases.
# (§4) Activity in each sample is determined as the product to sum ratio (PSR):P/(S+P), where P is the peak height of the product peptide and S is the peak height of the substrate peptide. For each compound, enzyme activity is measured at various concentrations (12 concentrations of compound spaced by 3× dilution intervals). Negative control samples (0%-inhibition in the absence of inhibitor) and positive control samples (100%-inhibition, in the presence of 20 mM EDTA) are assembled in replicates of four and are used to calculate %-inhibition values for each inhibitor at each concentration. Percent inhibition (Pinh) is determined using following equation: […]
# [2] = biological target: EGFR (Homo sapiens, UniProt P00533); test: Kinase panel inhibition, EGFR (one of the methods of Example 76a, 76b, 76c)
# EGFR, sequence (P00533 25-1210, species assumed): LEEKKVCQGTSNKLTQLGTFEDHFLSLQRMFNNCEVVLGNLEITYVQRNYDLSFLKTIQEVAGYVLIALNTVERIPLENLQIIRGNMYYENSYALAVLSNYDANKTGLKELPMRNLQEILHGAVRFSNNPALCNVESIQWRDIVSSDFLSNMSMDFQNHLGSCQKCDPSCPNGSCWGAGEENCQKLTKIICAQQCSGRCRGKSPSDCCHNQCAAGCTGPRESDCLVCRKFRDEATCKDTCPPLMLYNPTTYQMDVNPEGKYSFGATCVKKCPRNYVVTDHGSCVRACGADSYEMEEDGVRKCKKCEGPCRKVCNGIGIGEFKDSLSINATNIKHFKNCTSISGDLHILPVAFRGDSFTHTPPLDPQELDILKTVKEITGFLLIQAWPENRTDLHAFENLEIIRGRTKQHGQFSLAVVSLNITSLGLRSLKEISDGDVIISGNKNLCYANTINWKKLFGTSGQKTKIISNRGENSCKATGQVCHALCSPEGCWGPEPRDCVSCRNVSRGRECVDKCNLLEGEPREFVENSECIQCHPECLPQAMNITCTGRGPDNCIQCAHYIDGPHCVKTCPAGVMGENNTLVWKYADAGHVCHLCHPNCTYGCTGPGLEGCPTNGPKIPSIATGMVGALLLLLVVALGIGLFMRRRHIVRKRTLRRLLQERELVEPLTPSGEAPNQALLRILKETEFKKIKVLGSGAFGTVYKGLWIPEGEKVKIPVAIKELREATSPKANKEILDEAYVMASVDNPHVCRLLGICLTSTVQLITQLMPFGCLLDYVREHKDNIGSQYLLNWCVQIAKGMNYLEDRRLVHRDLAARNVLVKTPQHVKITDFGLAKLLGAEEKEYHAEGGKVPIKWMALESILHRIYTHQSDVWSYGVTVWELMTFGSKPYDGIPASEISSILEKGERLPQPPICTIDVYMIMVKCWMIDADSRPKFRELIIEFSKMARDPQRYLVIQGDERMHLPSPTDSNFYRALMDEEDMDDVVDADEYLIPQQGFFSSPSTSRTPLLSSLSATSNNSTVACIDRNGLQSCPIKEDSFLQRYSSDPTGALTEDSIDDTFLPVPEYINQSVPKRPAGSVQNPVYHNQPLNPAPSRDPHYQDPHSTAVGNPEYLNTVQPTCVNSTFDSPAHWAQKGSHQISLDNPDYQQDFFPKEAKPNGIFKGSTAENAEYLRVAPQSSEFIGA
# Description: as §1, §2, §3, §4
# [3] = biological target: LCK (Homo sapiens, UniProt P06239); test: Kinase panel inhibition, LCK (one of the methods of Example 76a, 76b, 76c)
# LCK, sequence (P06239 whole entry, species assumed): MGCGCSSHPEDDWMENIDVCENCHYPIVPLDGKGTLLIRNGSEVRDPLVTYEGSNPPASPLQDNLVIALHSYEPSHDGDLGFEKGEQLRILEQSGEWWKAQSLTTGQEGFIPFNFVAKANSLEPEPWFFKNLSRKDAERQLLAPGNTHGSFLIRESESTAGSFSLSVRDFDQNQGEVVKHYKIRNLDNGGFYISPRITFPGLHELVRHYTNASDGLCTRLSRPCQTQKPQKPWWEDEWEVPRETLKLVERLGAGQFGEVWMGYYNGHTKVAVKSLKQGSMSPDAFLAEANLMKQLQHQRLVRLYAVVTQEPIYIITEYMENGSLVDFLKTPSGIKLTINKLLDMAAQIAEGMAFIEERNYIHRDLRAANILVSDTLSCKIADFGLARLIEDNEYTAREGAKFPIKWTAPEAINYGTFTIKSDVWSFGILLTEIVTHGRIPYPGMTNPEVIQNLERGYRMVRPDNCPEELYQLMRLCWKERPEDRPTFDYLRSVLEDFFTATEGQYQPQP
# Description: as §1, §2, §3, §4
# T1 sequence (Q06187 whole entry): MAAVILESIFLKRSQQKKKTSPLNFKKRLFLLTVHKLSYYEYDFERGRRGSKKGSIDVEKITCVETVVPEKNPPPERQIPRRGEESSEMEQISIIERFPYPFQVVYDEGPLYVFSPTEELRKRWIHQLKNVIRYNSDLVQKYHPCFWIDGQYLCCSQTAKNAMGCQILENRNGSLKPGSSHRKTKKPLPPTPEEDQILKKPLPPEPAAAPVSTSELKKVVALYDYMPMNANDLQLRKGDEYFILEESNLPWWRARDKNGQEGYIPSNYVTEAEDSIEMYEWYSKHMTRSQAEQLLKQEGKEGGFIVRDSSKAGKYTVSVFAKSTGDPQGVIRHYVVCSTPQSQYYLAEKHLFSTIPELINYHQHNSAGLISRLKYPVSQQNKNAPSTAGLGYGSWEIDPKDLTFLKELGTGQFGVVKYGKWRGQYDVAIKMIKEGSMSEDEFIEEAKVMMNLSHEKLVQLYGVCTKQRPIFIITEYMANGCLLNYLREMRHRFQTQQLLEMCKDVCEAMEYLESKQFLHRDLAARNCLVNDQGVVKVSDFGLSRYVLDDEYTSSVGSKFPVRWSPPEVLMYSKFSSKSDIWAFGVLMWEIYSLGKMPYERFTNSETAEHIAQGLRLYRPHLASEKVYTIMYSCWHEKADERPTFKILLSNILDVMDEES
structure (smiles),measurement,setting,value
"CN(C)C/C=C/C(=O)N(C)c1cccc(-n2c(=O)n(-c3ccc(Oc4ccccc4)cc3)c3c(N)ncnc32)c1 [Compound 33, (E)-N-(3-(6-amino-8-oxo-7-(4-phenoxyphenyl)-7H-purin-9(8H)-yl)phenyl)-4-(dimethylamino)-N-methylbut-2-enamide]",IC50,[1],< 100 nM
same,IC50,[2],100 to 1000 nM
same,IC50,[3],1000 to 10000 nM
"CN(C(=O)/C=C/CN(C)C1CC1)c1cccc(-n2c(=O)n(-c3ccc(Oc4ccccc4)cc3)c3c(N)ncnc32)c1 [Compound 34, (E)-N-(3-(6-amino-8-oxo-7-(4-phenoxyphenyl)-7H-purin-9(8H)-yl)phenyl)-4-(cyclopropyl(methyl)amino)-N-methylbut-2-enamide]",IC50,[1],< 100 nM
same,IC50,[2],100 to 1000 nM
same,IC50,[3],1000 to 10000 nM
"CN(C)C/C=C/C(=O)N(C)c1ccc(-n2c(=O)n(-c3ccc(Oc4ccccc4)cc3)c3c(N)ncnc32)cc1 [Compound 43, (E)-N-(4-(6-amino-8-oxo-7-(4-phenoxyphenyl)-7H-purin-9(8H)-yl)phenyl)-4-(dimethylamino)-N-methylbut-2-enamide]",IC50,[1],< 100 nM
same,IC50,[2],1000 to 10000 nM
same,IC50,[3],100 to 1000 nM
"CN(C(=O)/C=C/CN(C)C1CC1)c1ccc(-n2c(=O)n(-c3ccc(Oc4ccccc4)cc3)c3c(N)ncnc32)cc1 [Compound 44, (E)-N-(4-(6-amino-8-oxo-7-(4-phenoxyphenyl)-7H-purin-9(8H)-yl)phenyl)-4-(cyclopropyl(methyl)amino)-N-methylbut-2-enamide]",IC50,[1],< 100 nM
same,IC50,[2],1000 to 10000 nM
same,IC50,[3],100 to 1000 nM
"CN(C(=O)/C=C/CN(C)C1CCC1)c1ccc(-n2c(=O)n(-c3ccc(Oc4ccccc4)cc3)c3c(N)ncnc32)cc1 [Compound 45, (E)-N-(4-(6-amino-8-oxo-7-(4-phenoxyphenyl)-7H-purin-9(8H)-yl)phenyl)-4-(cyclobutyl(methyl)amino)-N-methylbut-2-enamide]",IC50,[1],< 100 nM
same,IC50,[2],1000 to 10000 nM
same,IC50,[3],100 to 1000 nM
"CN(C)C/C=C/C(=O)N(C)c1ccc(-n2c(=O)n(-c3ccc(Cl)cc3)c3c(N)ncnc32)cc1 [Compound 48, (E)-N-(4-(6-amino-7-(4-chlorophenyl)-8-oxo-7H-purin-9(8H)-yl)phenyl)-4-(dimethylamino)-N-methylbut-2-enamide]",IC50,[1],100 to 1000 nM
same,IC50,[2],> 10000 nM
same,IC50,[3],1000 to 10000 nM
"CN(C(=O)/C=C/CN(C)C1CC1)c1ccc(-n2c(=O)n(-c3ccc(Cl)cc3)c3c(N)ncnc32)cc1 [Compound 49, (E)-N-(4-(6-amino-7-(4-chlorophenyl)-8-oxo-7H-purin-9(8H)-yl)phenyl)-4-(cyclopropyl(methyl)amino)-N-methylbut-2-enamide]",IC50,[1],100 to 1000 nM
same,IC50,[2],> 10000 nM
same,IC50,[3],1000 to 10000 nM
"CN(C(=O)/C=C/CN(C)C1CCC1)c1ccc(-n2c(=O)n(-c3ccc(Cl)cc3)c3c(N)ncnc32)cc1 [Compound 50, (E)-N-(4-(6-amino-7-(4-chlorophenyl)-8-oxo-7H-purin-9(8H)-yl)phenyl)-4-(cyclobutyl(methyl)amino)-N-methylbut-2-enamide]",IC50,[1],100 to 1000 nM
same,IC50,[2],> 10000 nM
same,IC50,[3],1000 to 10000 nM
"C=CC(=O)N(C)c1ccc(-n2c(=O)n(-c3ccc(Cl)cc3)c3c(N)ncnc32)cc1 [Compound 51, N-(4-(6-amino-7-(4-chlorophenyl)-8-oxo-7H-purin-9(8H)-yl)phenyl)-N-methylacrylamide]",IC50,[1],< 100 nM
same,IC50,[2],100 to 1000 nM
same,IC50,[3],1000 to 10000 nM
"COc1cc(-n2c(=O)n(-c3ccc(N(C)C(=O)/C=C/CN(C)C)cc3)c3ncnc(N)c32)ccc1C [Compound 54, (E)-N-(4-(6-amino-7-(3-methoxy-4-methylphenyl)-8-oxo-7H-purin-9(8H)-yl)phenyl)-4-(dimethylamino)-N-methylbut-2-enamide]",IC50,[1],< 100 nM
same,IC50,[2],1000 to 10000 nM
same,IC50,[3],1000 to 10000 nM
"C=CC(=O)N(C)c1ccc(-n2c(=O)n(-c3ccc(C)c(OC)c3)c3c(N)ncnc32)cc1 [Compound 55, N-(4-(6-amino-7-(3-methoxy-4-methylphenyl)-8-oxo-7H-purin-9(8H)-yl)phenyl)-N-methylacrylamide]",IC50,[1],< 100 nM
same,IC50,[2],1000 to 10000 nM
same,IC50,[3],1000 to 10000 nM
"CN(C/C=C/C(=O)N1CC[C@@H](n2c(=O)n(-c3ccc(Oc4ccccc4)cc3)c3c(N)ncnc32)C1)C1CC1 [Compound 63, (R,E)-6-amino-9-(1-(4-(cyclopropyl(methyl)amino)but-2-enoyl)pyrrolidin-3-yl)-7-(4-phenoxyphenyl)-7H-purin-8(9H)-one]",IC50,[1],< 100 nM
same,IC50,[2],1000 to 10000 nM
same,IC50,[3],100 to 1000 nM
"CN(C/C=C/C(=O)N1CC[C@@H](n2c(=O)n(-c3ccc(Oc4ccccc4)cc3)c3c(N)ncnc32)C1)C1CCC1 [Compound 64, (R,E)-6-amino-9-(1-(4-(cyclobutyl(methyl)amino)but-2-enoyl)pyrrolidin-3-yl)-7-(4-phenoxyphenyl)-7H-purin-8(9H)-one]",IC50,[1],< 100 nM
same,IC50,[2],1000 to 10000 nM
same,IC50,[3],100 to 1000 nM
"CN(C)C/C=C/C(=O)N1CC[C@@H](n2c(=O)n(-c3ccc(Cl)cc3)c3c(N)ncnc32)C1 [Compound 67, (R,E)-6-amino-7-(4-chlorophenyl)-9-(1-(4-(dimethylamino)but-2-enoyl)pyrrolidin-3-yl)-7H-purin-8(9H)-one]",IC50,[1],100 to 1000 nM
same,IC50,[2],> 10000 nM
same,IC50,[3],1000 to 10000 nM
"CN(C)C/C=C/C(=O)N1CCC(Cn2c(=O)n(-c3ccc(Oc4ccccc4)cc3)c3c(N)ncnc32)CC1 [Compound 75, (E)-6-amino-9-((1-(4-(dimethylamino)but-2-enoyl)piperidin-4-yl)methyl)-7-(4-phenoxyphenyl)-7H-purin-8(9H)-one]",IC50,[1],< 100 nM
same,IC50,[2],1000 to 10000 nM
same,IC50,[3],100 to 1000 nM
"COc1cc(-n2c(=O)n([C@@H]3CCN(C(=O)/C=C/CN(C)C)C3)c3ncnc(N)c32)ccc1C [Compound 81, (R,E)-6-amino-9-(1-(4-(dimethylamino)but-2-enoyl)pyrrolidin-3-yl)-7-(3-methoxy-4-methylphenyl)-7H-purin-8(9H)-one]",IC50,[1],< 100 nM
same,IC50,[2],> 10000 nM
same,IC50,[3],1000 to 10000 nM
"COCCOc1ccc(-n2c(=O)n(-c3ccc(C)c(OC)c3)c3c(N)ncnc32)cc1N(C)C(=O)/C=C/CN(C)C [Compound 104, (E)-N-(5-(6-amino-7-(3-methoxy-4-methylphenyl)-8-oxo-7H-purin-9(8H)-yl)-2-(2-methoxyethoxy)phenyl)-4-(dimethylamino)-N-methylbut-2-enamide]",IC50,[1],100 to 1000 nM
same,IC50,[2],> 10000 nM
same,IC50,[3],> 10000 nM
"COCCOc1ccc(-n2c(=O)n(-c3ccc(C)c(OC)c3)c3c(N)ncnc32)cc1NC(=O)/C=C/CN(C)C [Compound 112, (E)-N-(5-(6-amino-7-(3-methoxy-4-methylphenyl)-8-oxo-7H-purin-9(8H)-yl)-2-(2-methoxyethoxy)phenyl)-4-(dimethylamino)but-2-enamide]",IC50,[1],< 100 nM
same,IC50,[2],1000 to 10000 nM
same,IC50,[3],1000 to 10000 nM
"CN(C(=O)/C=C/CNC1CC1)c1cccc(-n2c(=O)n(-c3ccc(Oc4ccccc4)cc3)c3c(N)ncnc32)c1 [Compound 118, (E)-N-(3-(6-amino-8-oxo-7-(4-phenoxyphenyl)-7H-purin-9(8H)-yl)phenyl)-4-(cyclopropylamino)-N-methylbut-2-enamide]",IC50,[1],< 100 nM
same,IC50,[2],100 to 1000 nM
same,IC50,[3],100 to 1000 nM
